Assay results: US6737383B1, “Herbicidal oxadiazolidines” (priority 1999, dated 2004)

Tests used:
bedstraw = test: Test B pre/postemergence bedstraw; type: in vivo, Galium aparine
How it was run: (§1)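 Response is a visual 0-to-10 score relative to untreated plants, where 0 means no effect and 10 means complete control, taken twelve to sixteen days after application. Treatments went onto soil at planting and onto foliage of 1- to 4-leaf plants, using a surfactant-containing non-phytotoxic solvent.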

blackgrass = test: Test B pre/postemergence blackgrass; type: in vivo, Alopecurus myosuroides
How it was run: as §1

surinam grass = test: Test B pre/postemergence surinam grass; type: in vivo, Brachiaria decumbens
How it was run: as §1

cocklebur = test: Test B pre/postemergence cocklebur; type: in vivo, Xanthium strumarium
How it was run: as §1

corn = test: Test B pre/postemergence corn; type: in vivo, Zea mays
How it was run: as §1

giant foxtail = test: Test B pre/postemergence giant foxtail; type: in vivo, Setaria faberii
How it was run: as §1

morningglory = test: Test B pre/postemergence morningglory; type: in vivo, Ipomoea hederacea
How it was run: as §1

pigweed = test: Test B pre/postemergence pigweed; type: in vivo, Amaranthus retroflexus
How it was run: as §1

rape = test: Test B pre/postemergence rape; type: in vivo, Brassica napus
How it was run: as §1

soybean = test: Test B pre/postemergence soybean; type: in vivo, Glycine max
How it was run: as §1

sugar beet = test: Test B pre/postemergence sugar beet; type: in vivo, Beta vulgaris; conditions: for Plant response rating, Sugarbeets: Rate 250 g/ha
How it was run: as §1

velvetleaf = test: Test B pre/postemergence velvetleaf; type: in vivo, Abutilon theophrasti; conditions: for Plant response rating, Velvetleaf: Rate 250 g/ha
How it was run: as §1

purple nutsedge = test: Test B pre/postemergence purple nutsedge; type: in vivo, Cyperus rotundus
How it was run: as §1

smallflower flatsedge = test: Test B flood test smallflower flatsedge; type: in vivo, Cyperus difformis
How it was run: (§2)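 Flood test on plants grown to the 2-leaf stage; treated plants kept in greenhouse twelve to sixteen days, then visually rated against controls on a 0 (no effect) to 10 (complete control) scale.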

duck salad = test: Test B flood test duck salad; type: in vivo, Heteranthera limosa
How it was run: as §2

bamyardgrass = test: Test B flood test barnyardgrass; type: in vivo, Echinochloa crus-galli
How it was run: as §2

[1] = Postemergence, Rate 62 g/ha, scale 0 to 10, 0 is no effect, 10 is complete control
[2] = Postemergence, Rate 250 g/ha, scale 0 to 10, 0 no effect, 10 complete control
[3] = Preemergence, Rate 62 g/ha, scale 0 to 10 (0 no effect, 10 complete control)
[4] = Preemergence, Rate 125 g/ha, scale 0 to 10 (0 no effect, 10 complete control)
[5] = Preemergence, Rate 250 g/ha, scale of 0 to 10 where 0 is no effect and 10 is complete control
[6] = Preemergence, Rate 500 g/ha, scale 0 to 10 (0 no effect, 10 complete control)
[7] = Rate 125 g/ha, Postemergence, scale 0 to 10, 0 no effect, 10 complete control
[8] = Postemergence, Rate 125 g/ha, scale of 0 to 10 where 0 is no effect and 10 is complete control
[9] = Rate 62 g/ha, Postemergence, scale of 0 to 10 where 0 is no effect and 10 is complete control
[10] = Rate 500 g/ha, Postemergence, scale 0 to 10, 0 no effect, 10 complete control
[11] = Rate 250 g/ha, Postemergence, scale 0 to 10, 0 is no effect, 10 is complete control
[12] = Preemergence, Rate 125 g/ha, 0 is no effect, 10 is complete control
[13] = Preemergence, scale of 0 to 10 where 0 is no effect and 10 is complete control
[14] = Postemergence, scale 0 to 10, 0 is no effect, 10 is complete control
[15] = Rate 250 g/ha, headed Pre-emergence (flood test species), scale 0 to 10 (0 no effect, 10 complete control)
[16] = Rate 500 g/ha, headed Pre-emergence (flood test species), scale 0 to 10 (0 no effect, 10 complete control)
[17] = Rate 2000 g/ha, Pre-emergence (as headed), scale 0 to 10
[18] = Rate 1000 g/ha, Pre-emergence (as headed), scale 0 to 10

Compound: CC(C)N(C(=O)n1oc(=O)n(C(C)(C)C)c1=O)c1ccc(Cl)cc1 [Compound 118]
- Bedstraw plant response rating (bedstraw; [1]): 0
- Bedstraw plant response rating (bedstraw; [2]): 0
- Bedstraw plant response rating (bedstraw; [3]): 0
- Plant response rating, Bedstraw (bedstraw; [4]): 0
- Plant response rating, Bedstraw (bedstraw; [5]): 0
- Bedstraw plant response rating (bedstraw; [6]): 0
- Bedstraw plant response rating (bedstraw; [7]): 0
- Blackgrass plant response rating (blackgrass; [8]): 4
- Blackgrass plant response rating (blackgrass; [2]): 7
- Blackgrass plant response rating (blackgrass; [3]): 0
- Plant response rating, Blackgrass (blackgrass; [4]): 2
- Plant response rating, Blackgrass (blackgrass; [5]): 3
- Blackgrass plant response rating (blackgrass; [6]): 7
- Blackgrass plant response rating (blackgrass; [9]): 0
- Blackgrass plant response rating (blackgrass; [10]): 9
- B. signalgrass plant response rating (surinam grass; [1]): 0
- B. signalgrass plant response rating (surinam grass; [2]): 2
- B. signalgrass plant response rating (surinam grass; [3]): 0
- Plant response rating, B. signalgrass (surinam grass; [4]): 2
- Plant response rating, B. signalgrass (surinam grass; [5]): 3
- B. signalgrass plant response rating (surinam grass; [6]): 10
- B. signalgrass plant response rating (surinam grass; [7]): 0
- B. signalgrass plant response rating (surinam grass; Rate 500 g/ha, Postemergence, scale of 0 to 10 where 0 is no effect and 10 is complete control): 9
- Cocklebur plant response rating (cocklebur; [8]): 0
- Cocklebur plant response rating (cocklebur; [2]): 0
- Cocklebur plant response rating (cocklebur; [3]): 0
- Plant response rating, Cocklebur (cocklebur; [4]): 0
- Plant response rating, Cocklebur (cocklebur; [5]): 0
- Cocklebur plant response rating (cocklebur; [6]): 0
- Cocklebur plant response rating (cocklebur; [9]): 0
- Cocklebur plant response rating (cocklebur; [10]): 0
- Corn plant response rating (corn; [8]): 0
- Corn plant response rating (corn; [2]): 0
- Corn plant response rating (corn; [3]): 0
- Plant response rating, Corn (corn; [4]): 0
- Plant response rating, Corn (corn; [5]): 0
- Corn plant response rating (corn; [6]): 0
- Corn plant response rating (corn; [9]): 0
- Corn plant response rating (corn; [10]): 3
- Giant foxtail plant response rating (giant foxtail; [8]): 8
- Giant foxtail plant response rating (giant foxtail; [2]): 9
- Giant foxtail plant response rating (giant foxtail; [3]): 9
- Plant response rating, Giant foxtail (giant foxtail; [4]): 10
- Plant response rating, Giant foxtail (giant foxtail; [5]): 10
- Giant foxtail plant response rating (giant foxtail; [6]): 10
- Giant foxtail plant response rating (giant foxtail; [9]): 1
- Giant foxtail plant response rating (giant foxtail; [10]): 9
- Morningglory plant response rating (morningglory; [8]): 4
- Morningglory plant response rating (morningglory; [2]): 5
- Morningglory plant response rating (morningglory; [3]): 0
- Plant response rating, Morningglory (morningglory; [4]): 0
- Plant response rating, Morningglory (morningglory; [5]): 0
- Morningglory plant response rating (morningglory; [6]): 0
- Morningglory plant response rating (morningglory; [9]): 1
- Morningglory plant response rating (morningglory; [10]): 7
- Redroot pigweed plant response rating (pigweed; [8]): 0
- Redroot pigweed plant response rating (pigweed; [3]): 0
- Plant response rating, Redroot pigweed (pigweed; [4]): 0
- Plant response rating, Redroot pigweed (pigweed; [5]): 2
- Redroot pigweed plant response rating (pigweed; [6]): 10
- Redroot pigweed plant response rating (pigweed; [9]): 0
- Plant response rating, Redroot pigweed (pigweed; [11]): 0
- Redroot pigweed plant response rating (pigweed; [10]): 0
- Rape plant response rating (rape; [8]): 0
- Rape plant response rating (rape; [2]): 0
- Rape plant response rating (rape; [3]): 0
- Plant response rating, Rape (rape; [4]): 0
- Plant response rating, Rape (rape; [5]): 0
- Rape plant response rating (rape; [6]): 0
- Rape plant response rating (rape; [9]): 0
- Rape plant response rating (rape; [10]): 0
- Soybean plant response rating (soybean; [8]): 1
- Soybean plant response rating (soybean; [3]): 0
- Plant response rating, Soybean (soybean; [4]): 0
- Plant response rating, Soybean (soybean; [5]): 0
- Soybean plant response rating (soybean; [6]): 0
- Soybean plant response rating (soybean; [9]): 1
- Plant response rating, Soybean (soybean; [11]): 2
- Soybean plant response rating (soybean; [10]): 2
- Sugarbeets plant response rating (sugar beet; [8]): 0
- Sugarbeets plant response rating (sugar beet; [3]): 0
- Sugarbeets plant response rating (0 to 10 scale) (sugar beet; [12]): 0
- Plant response rating, Sugarbeets (sugar beet; [13]): 0
- Sugarbeets plant response rating (sugar beet; [6]): 0
- Sugarbeets plant response rating (sugar beet; [9]): 0
- Plant response rating, Sugarbeets (sugar beet; [14]): 0
- Sugarbeets plant response rating (sugar beet; [10]): 2
- Velvetleaf plant response rating (velvetleaf; [8]): 0
- Velvetleaf plant response rating (velvetleaf; [3]): 0
- Velvetleaf plant response rating (0 to 10 scale) (velvetleaf; [12]): 0
- Plant response rating, Velvetleaf (velvetleaf; [13]): 0
- Velvetleaf plant response rating (velvetleaf; [6]): 4
- Velvetleaf plant response rating (velvetleaf; [9]): 0
- Plant response rating, Velvetleaf (velvetleaf; [14]): 0
- Velvetleaf plant response rating (velvetleaf; [10]): 0
- Nutsedge plant response rating (purple nutsedge; [8]): 0
- Nutsedge plant response rating (purple nutsedge; [2]): 0
- Nutsedge plant response rating (purple nutsedge; [3]): 0
- Plant response rating, Nutsedge (purple nutsedge; [4]): 0
- Plant response rating, Nutsedge (purple nutsedge; [5]): 0
- Nutsedge plant response rating (purple nutsedge; [6]): 0
- Nutsedge plant response rating (purple nutsedge; [9]): 0
- Nutsedge plant response rating (purple nutsedge; [10]): 0
- S. Flatsedge plant response rating (smallflower flatsedge; Pre-emergence, Rate 1000 g/ha, scale 0 to 10 (0 no effect, 10 complete control)): 0
- S. Flatsedge plant response rating (smallflower flatsedge; [15]): 0
- Plant response rating, S. Flatsedge (smallflower flatsedge; [16]): 0
- S. Flatsedge plant response rating (smallflower flatsedge; [17]): 0
- Ducksalad plant response rating (duck salad; [15]): 0
- Plant response rating, Ducksalad (duck salad; [16]): 0
- Ducksalad plant response rating (duck salad; [18]): 0
- Ducksalad plant response rating (duck salad; [17]): 0
- Barnyardgrass plant response rating (bamyardgrass; [15]): 0
- Plant response rating, Barnyardgrass (bamyardgrass; [16]): 1
- Barnyardgrass plant response rating (bamyardgrass; [18]): 3
- Barnyardgrass plant response rating (bamyardgrass; Rate 2000 g/ha, Pre-emergence (as headed), scale 0 to 10, 0 no effect, 10 complete control): 6
